Tests used:
[1] = system: HCT116 cells; test: Cell viability assay (SRB); assay type: cell-based, human
Source text: (§1) Human colon cancer cell line HCT116, hepatoma cell lines HepG2 and BEL-7402, lung adenocarcinoma cell lines NCI-H1975 and 95-D, pancreatic cancer cell line Panc-1, breast cancer cell line MDA-MB-231, NSCLC cell line NCI-H1299, ovarian cancer cell line SK-OV-3, leukemia cell line K562, glioma cell line U87, colon epithelial cell line NCM460 and umbilical vein endothelial cell line HUVEC were purchased from the Institute of Biochemistry and Cell Biology, Chinese Academy of Sciences (Shanghai, China). HCT116 cell line was cultured in McCoy’s 5A medium (Hyclone, Logan, UT, USA). HepG2, 95-D, Panc-1, MDA-MB-231, BEL-7402, SK-OV-3, U87 and NCM460 cell lines were cultured in DMEM-High glucose medium (Hyclone, Logan, UT, USA). NCI-H1975, NCI-H1299 and HUVEC cell lines were cultured in RPMI 1640 medium (Hyclone, Logan, UT, USA). K562 cell line was cultured in IMDM medium (Hyclone, Logan, UT, USA). […]
(§2) The inhibition rate of cell viability was detected by 3-(4,5-dimethyl-2-thiazolyl)-2,5-diphenyl-2-H-tetrazolium bromide (MTT, Solarbio, Beijing, China) or Sulforhodamine B (SRB, Sigma-Aldrich, St. Louis, MO, USA) assay. […] The absorbance at 570 nm was measured in a multimode reader (Berthold Technologies, Germany). […] Finally, Tris–HCl solution was added, and the absorbance at 515 nm was detected in a multimode reader (Berthold Technologies, Germany).

[2] = system: K562 cells; test: Cell viability assay (MTT); assay type: cell-based; conditions: Homo sapiens, K562, 72 h
Source text: as §1, §2

[3] = system: HUVEC cells; test: Cell viability assay (SRB), normal cells; assay type: cell-based; conditions: Homo sapiens, 72 h
Source text: as §1, §2

[4] = system: NCM460 cells; test: Cell viability assay (SRB), normal cells; assay type: cell-based; conditions: Homo sapiens, 72 h
Source text: as §1, §2

[5] = system: HCT116 cells; test: Colony formation assay; assay type: cell-based, human; conditions: 4o 0.625, 1.25 and 2.5 μM, 8 days
Description: HCT116 cells were seeded in 6-well plates at a density of 500 cells per well. After 24 h, cells were treated with different concentrations of 4o for 8 days. Subsequently, the culture medium was removed and the cells were fixed with methanol for 3 min, and stained with crystal violet (Solarbio, Beijing, China) for 15 min. Finally, colonies were counted and photographed.

[6] = system: HCT116 cells; test: Western blotting of apoptosis-related proteins; assay type: cell-based, human; conditions: HCT116, 4o 2.5, 5 and 10 μM, 24 h, versus DMSO
Description: HCT116 cells were harvested, lysed on ice in RIPA buffer (Beyotime Institute of Biotechnology, Shanghai, China) and boiled. Protein concentration was measured by BCA protein assay kit (Beyotime Institute of Biotechnology, Shanghai, China). The protein samples were separated by SDS-PAGE and transferred to the membrane (Pall, New York, NY, USA). Afterwards, the membrane was immunoblotted with the corresponding primary antibody (C-parp (#5625), C-cas9 (#9505), C-cas3 (#9661), Bcl-2 (#4223), Bax (#5023), SHP2 (#3752), P-Erk1/2 (#9101) and Erk1/2 (#9102), 1:1000, Cell Signaling Technology, Danvers, MA, USA; Tubulin (#ET1602-4), 1:5000, HUABIO, Hangzhou, China) and the appropriate HRP-conjugated secondary antibody, and determined with ECL detection reagent (Thermo Scientific, Waltham, MA, USA).

[7] = system: HCT116 cells xenograft; test: Anti-tumor activity in vivo, HCT116 xenograft model; parameters: species or system BALB/c-nude mice
Description: Male BALB/c-nude mice (Jinan Pengyue Experimental Animal Breeding Co., Ltd., Jinan, China), 5 weeks of age, were used. The mice were housed in a specific pathogen-free room with temperature controlled (22 ± 2 °C), humidity (55 ± 10%) and a light/dark cycle of 12 h, providing sterile food and water. The HCT116 cells xenograft model was conducted, and 1 × 10^7 HCT116 cells were subcutaneously injected into the right armpit of mice. The tumor volume of mice was measured every three days to evaluate the tumor growth. When the tumor volume reached about 100 mm^3, the mice were randomly divided into four groups (n = 6), and treated with vehicle (0.5% CMC-Na solution) or 4o (25, 50 mg/kg) by gavage once a day for 13 consecutive days. A total of 25 mg/kg 5-FU was used as a positive control. The body weight of mice was measured every three days. The length (L) and width (W) of tumors were measured by electronic caliper every three days. The volume (V) was calculated as follows: V = (L × W^2)/2. When the tumor volume reached about 1000 mm^3, the tumors were excised. Immunohistochemical analysis were used to evaluate the related protein levels.

CCOc1ccc(Oc2ccc(C3=NN(C4=NC(=O)CS4)C(c4cc(O)c(O)c(Br)c4Br)C3)cc2)cc1 (stereo not shown) [Compound 4o, 2-(5-(2,3-dibromo-4,5-dihydroxyphenyl)-3-(4-(4-ethoxyphenoxy)phenyl)-4,5-dihydro-1H-pyrazol-1-yl)thiazol-4(5H)-one]
Growth inhibition of HCT116 cells ([1]; 24, 48 and 72 h): time- and dose-dependent manner
IC50 ([1]; Homo sapiens, HCT-116, HCT116, 72 h): 2.64 ± 0.17 µM
IC50 [2]: 9.6 ± 0.68 µM
IC50 [3]: 28.3 ± 1.63 µM
IC50 [4]: 27.1 ± 0.66 µM
Colony formation of HCT116 cells [5]: significantly inhibited the colony formation
Bax/Bcl-2 ratio [6]: up-regulated
Levels of cleaved parp, cleaved caspase9 and cleaved caspase3 [6]: increased
Tumor inhibition rate ([7]; 4o 25 mg/kg by gavage once daily, 13 days): 58.8%
Tumor inhibition rate ([7]; 4o 50 mg/kg by gavage once daily, 13 days): 67.2%
Effect on body weight of tumor-bearing mice ([7]; 4o 25, 50 mg/kg or 5-FU 25 mg/kg, 13 days): did not have any obvious effect on the body weight
Expression of Ki67 and p-Erk in tumors (immunohistochemistry) ([7]; 4o 25, 50 mg/kg, 13 days): significantly decreased
Tumor weight ([7]; 4o 25, 50 mg/kg, after 13 days, versus vehicle): much lighter

— PMC8998978, “Toward a Treatment of Cancer: Design and In Vitro/In Vivo Evaluation of Uncharged Pyrazoline Derivatives as a Series of Novel SHP2 Inhibitors” (International Journal of Molecular Sciences, 2022)
